According to patent US6605459B2, “Methods for measuring cysteine and determining cysteine synthase activity” (Paradigm Genetics, Inc., priority 2001, dated 2003):

Biological target: T1, cysteine synthase (Arabidopsis thaliana, UniProt Q9S6Z7)
T1 construct: made in house; host or cells: E. coli BL21(DE3)lysS (pET30/CS) or Sf-9 insect cells (baculovirus, pFB/CS)
Test: Assay tolerance of DMSO in the cysteine synthase assay
Assay type: biochemical
Conditions: 0 to 2% DMSO (by volume)
Method: A cysteine synthase assay was performed using various amounts of DMSO to test the assay compatibility of the DMSO. The results are shown in FIG. 24, where all values are the mean of triplicate determinations, and standard deviations are indicated.

T1 sequence (Q9S6Z7 whole entry): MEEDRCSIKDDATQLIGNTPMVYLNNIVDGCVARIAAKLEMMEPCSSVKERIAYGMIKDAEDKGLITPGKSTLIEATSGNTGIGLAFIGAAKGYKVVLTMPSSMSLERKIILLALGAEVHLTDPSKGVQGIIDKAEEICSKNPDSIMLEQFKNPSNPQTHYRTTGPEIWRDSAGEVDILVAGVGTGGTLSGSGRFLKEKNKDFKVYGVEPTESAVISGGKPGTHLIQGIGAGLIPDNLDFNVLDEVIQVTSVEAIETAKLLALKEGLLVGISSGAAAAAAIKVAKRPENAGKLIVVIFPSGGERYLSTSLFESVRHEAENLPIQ

## C[S+](C)[O-] [DMSO, dimethyl sulfoxide]
  inhibitory effect on cysteine synthase activity: No inhibitory effect
